Test results taken from US6653478B2, “Substituted benzimidazol-2-ones as vasopressin receptor antagonists and neuropeptide Y modulators” (Ortho-McNeil Pharmaceutical, Inc., priority 2000, dated 2003).

What was measured:
human V1b receptor = target: T1, human V1b receptor (Homo sapiens, UniProt P47901); experiment: V1b binding assay (3H-AVP displacement, HEK-293 membranes); parameters: expressed in transfected cells; host or cells: HEK-293 (membranes); details: for inhibition at 10 µM: 10 μM compound, read-out: V1b % Inh @10; for inhibition at 1 µM: 1.0 μM compound, read-out: V1b@1.0, % Inh
T1 sequence (P47901 1-424): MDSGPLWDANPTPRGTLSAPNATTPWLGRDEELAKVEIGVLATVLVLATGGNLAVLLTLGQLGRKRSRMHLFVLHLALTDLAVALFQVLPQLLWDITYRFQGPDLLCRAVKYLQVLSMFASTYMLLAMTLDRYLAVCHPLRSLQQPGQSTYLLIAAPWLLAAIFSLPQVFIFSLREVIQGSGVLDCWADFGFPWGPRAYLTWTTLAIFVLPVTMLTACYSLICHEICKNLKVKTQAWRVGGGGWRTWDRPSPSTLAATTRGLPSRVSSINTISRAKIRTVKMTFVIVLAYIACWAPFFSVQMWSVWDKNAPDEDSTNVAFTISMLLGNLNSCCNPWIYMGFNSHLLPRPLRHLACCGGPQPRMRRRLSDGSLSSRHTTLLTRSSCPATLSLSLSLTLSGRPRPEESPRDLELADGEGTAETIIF
Description: (§1) V1a, V1b or V2 Binding Assay
(§2) Receptor binding studies were performed using recombinant human V1a, V1b or V2 receptors. Cellular membranes were harvested from HEK-293 cells transfected to express either the V1a, V1b or V2 receptors. Compounds were evaluated for their ability to displace ^3H-arginine vasopressin (^3H-AVP; specific activity 40-87 Ci/mmol; NEN Life Sciences, Boston, Mass.). Compounds were solubilized in dimethylsulfoxide (DMSO) and diluted to working concentration of 10% DMSO with assay buffer (50 mM Tris, 5 mM MgCl2, 0.1% BSA, pH 7.5). Assay buffer was supplemented with several protease inhibitors (1 mM Pefabloc, 5 μg/ml aprotinin/leupeptin/pepstatin A, 50 μg/ml bacitracin; Sigma Chemical, St. Louis, Mo.). Non-specific binding was determined using 1.25 μM arginine vasopressin (AVP; Peninsula Labs, Belmont, Calif.). Assay reagents and test compounds were added to 96-well round bottom polypropylene plates (145 μl buffer, 5 μl compound in 10% DMSO, 25 μl buffer containing 10,000 cpm tracer, 25 μl cell membrane). After incubation for 1 hour at room temperature, the well contents were aspirated across a Unifilter GF/C plate (Packard Instrument, Downers Grove, Ill.) which had been presoaked in 0.3% polyethyleneimine to prevent peptide sticking. The wells were washed repeatedly with cold saline containing 0.05% Tween 20. The plate was then dried and 25 μl Microscint-20 cocktail (Packard Instruments) added to each well. The plates were sealed and counted on a TopCount scintillation counter (Packard Instruments) using quench correction.

NPY2 receptors = target: T2, NPY2 receptors (Homo sapiens, UniProt P49146); experiment: Neuropeptide Y receptor binding assay (125I-PYY, KAN-TS cell membranes); details: 10 μM compound; read-out: NPY-2@10, % Inh
T2 construct: Cell Membranes from KAN-TS cells having NPY2 receptors; endogenous in cells; host or cells: KAN-TS cells (membranes)
T2 sequence (P49146 1-381): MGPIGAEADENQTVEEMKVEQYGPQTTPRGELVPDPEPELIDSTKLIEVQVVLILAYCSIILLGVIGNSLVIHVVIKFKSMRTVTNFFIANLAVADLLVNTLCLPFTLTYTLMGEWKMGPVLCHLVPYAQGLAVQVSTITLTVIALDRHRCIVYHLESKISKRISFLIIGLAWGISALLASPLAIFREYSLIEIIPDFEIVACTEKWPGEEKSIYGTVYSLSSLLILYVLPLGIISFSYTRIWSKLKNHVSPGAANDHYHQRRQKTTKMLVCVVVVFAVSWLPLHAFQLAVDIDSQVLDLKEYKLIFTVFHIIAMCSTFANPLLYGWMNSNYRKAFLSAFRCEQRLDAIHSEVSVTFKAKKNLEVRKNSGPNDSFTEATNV
Description: Neuropeptide Y Receptor Binding Assay
Load 96-well RIA racks with RIA vials (Sarstedt, cat. #73.1055)
Prepare membranes—use 2×15 cm confluent plates/96-well assay plate
Add 14 mls Homogenization buffer/cell pellet
Homogenize at high speed for 15 seconds
Transfer to 15 ml conical tube and spin 5′ at 4° C. at setting 3 in RT6000 centrifuge
Transfer supernatant to 30 ml Corex tube
Balance and spin 25′ at 15,000 rpm at 4° C.
Resuspend pellet in 10 mls Binding buffer
Homogenize at high speed for 15 sec.
Bring volume up to 50 mls in Binding buffer (25 mls/2×96-well plates)
Keep on ice until use or freeze in aliquots (2 plates/tube) in −70° C.
Prepare ^125I-PYY (for 2×96-well compound plates)
Dilute 50 uCi ^125I-PYY in 1 ml H2O
Add 0.4 ml 10% BSA to 20 ml Binding buffer
Add 150 μl ^125I-PYY, mix well
NSB (1 μM PYY final conc.): 40 μl PYY (100 μM stock)+60 μl 30% DMSO in HEPES=40 μM PYY—add 5 μl/well
Total Binding: Add 5 μl/well of Compound Diluent
Add 5 μl compound (final conc. @10 μM)
Incubate at R.T. for 1 hr.
Spin plates for 10′ at setting 9 in RT6000 centrifuge
Aspirate supernatant from tubes, add 300 μl PBS and aspirate again.
After plates are washed and aspirated, put individual tubes in 12×75 mm polypropylene carrier tubes. Count on gamma counter.

human V1a receptor = human V1a receptor (Homo sapiens, UniProt P37288); experiment: V1a binding assay (3H-AVP displacement, HEK-293 membranes); parameters: expressed in transfected cells; host or cells: HEK-293 (membranes); details: for inhibition at 1 µM: 1.0 μM compound, read-out: V1a@1.0, % Inh; for inhibition at 0.1 µM: 0.1 μM compound, read-out: V1a % Inh @0.1
Description: as §1, §2

human V2 receptor = human V2 receptor (Homo sapiens, UniProt P30518); experiment: V2 binding assay (3H-AVP displacement, HEK-293 membranes); parameters: expressed in transfected cells; host or cells: HEK-293 (membranes); details: 1.0 μM compound; read-out: V2@1.0, % Inh
Description: as §1, §2

Sequence of human V1a receptor (P37288 whole entry): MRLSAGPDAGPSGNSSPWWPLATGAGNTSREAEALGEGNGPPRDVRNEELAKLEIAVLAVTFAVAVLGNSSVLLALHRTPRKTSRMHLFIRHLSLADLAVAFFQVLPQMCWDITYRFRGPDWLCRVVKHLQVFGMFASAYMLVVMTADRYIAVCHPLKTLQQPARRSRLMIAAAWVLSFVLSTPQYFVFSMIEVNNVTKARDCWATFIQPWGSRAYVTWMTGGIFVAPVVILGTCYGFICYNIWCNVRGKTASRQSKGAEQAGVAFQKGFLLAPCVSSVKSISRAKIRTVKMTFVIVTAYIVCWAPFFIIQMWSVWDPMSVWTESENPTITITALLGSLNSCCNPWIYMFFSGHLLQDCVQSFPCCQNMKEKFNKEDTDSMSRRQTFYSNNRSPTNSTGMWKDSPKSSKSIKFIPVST
Sequence of human V2 receptor (P30518 whole entry): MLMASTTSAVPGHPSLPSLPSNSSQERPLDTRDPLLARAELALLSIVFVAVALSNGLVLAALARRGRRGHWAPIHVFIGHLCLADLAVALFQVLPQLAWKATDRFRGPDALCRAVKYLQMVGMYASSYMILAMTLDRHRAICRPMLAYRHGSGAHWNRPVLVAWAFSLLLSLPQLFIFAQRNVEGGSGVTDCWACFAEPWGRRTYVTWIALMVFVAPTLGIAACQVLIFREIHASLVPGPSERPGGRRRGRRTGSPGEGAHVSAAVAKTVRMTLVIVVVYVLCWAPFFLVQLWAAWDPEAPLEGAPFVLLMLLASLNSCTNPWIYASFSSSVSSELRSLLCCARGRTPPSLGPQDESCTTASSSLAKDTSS

SMILES | inhibition at 10 µM (human V1b receptor) [%] | inhibition at 10 µM (NPY2 receptors) [%] | IC50 (human V1a receptor) [nM] | inhibition at 1 µM (human V2 receptor) [%] | inhibition at 1 µM (human V1b receptor) [%] | inhibition at 1 µM (human V1a receptor) [%] | inhibition at 10 µM (human V1a receptor; 10 μM compound, read-out: V1a % Inh @10) [%] | inhibition at 0.1 µM (human V1a receptor) [%]
COC(=O)C(Cc1ccccc1)NC(=S)N1CCC(n2c(=O)n(CCCN3C(=O)c4ccccc4C3=O)c3ccccc32)CC1 (stereo not drawn) [Compound 56] | 19 | 22 | 360 | 3 | – | – | – | –
CC(NC(=O)N1CCC(n2c(=O)[nH]c3ccccc32)CC1)c1cccc2ccccc12 (stereo in doubt) [Compound 7] | 11 | 13 | 9200 | 31 | – | – | – | –
CCCN(CCC)CCCn1c(=O)n(C2CCN(C(=S)NC(c3ccccc3)c3ccccc3)CC2)c2ccccc21 [Compound 79, 1-[(N1-piperidinocarbothioylbiphenylmethylamino)-4-yl]-3-(3-N,N-dipropylaminopropyl)-1,3-dihydrobenzimidazol-2-one] | – | 80 | 16 | 13 | 48 | – | – | –
O=C(NCc1ccccc1)N1CCC(n2c(=O)n(CCCN3CCCCC3)c3ccccc32)CC1 [Compound 106, 1-[(N1-piperidinocarbonybenzylamino)-4-yl]-3-(3-N-piperidinylpropyl)-1,3-dihydrobenzimidazol-2-one] | – | 0 | – | 2 | 32 | 56 | – | –
COc1cccc(CNC(=S)N2CCC(n3c(=O)[nH]c4ccccc43)CC2)c1OC [Compound 18] | 3 | 10 | – | 9 | – | 22 | – | –
CC(Cc1ccc(Cl)cc1)NC(=S)N1CCC(n2c(=O)[nH]c3ccccc32)CC1 (stereo not drawn) [Compound 30] | 0 | 23 | 390 | 9 | – | – | – | –
O=c1n(CCCN2CCCCC2)c2ccccc2n1C1CCN(C(=S)NCc2cccc3ccccc23)CC1 [Compound 112, 1-[(N1-piperidinocarbothioyl-1-naphthalmethylamino)-4-yl]-3-(3-N-piperidinylpropyl)-1,3-dihydrobenzimidazol-2-one] | – | 55 | 139 | 0 | 32 | – | – | –
COc1cc(CNC(=S)N2CCC(n3c(=O)[nH]c4ccccc43)CC2)cc(OC)c1OC [Compound 20] | 0 | 12 | – | 0 | – | – | 25 | –
O=C(NC(c1ccccc1)c1ccccc1)N1CCC(n2c(=O)n(CCCN3CC=CC3)c3ccccc32)CC1 [Compound 102] | – | 23 | 123 | 6 | 41 | – | – | –
Cn1c(=O)n(C2CCN(C(=S)NC(c3ccccc3)c3ccccc3)CC2)c2ccccc21 [Compound 10, 3-Methyl-1-[(N1-Piperidinocarbothioyldiphenylmethylamino)-4-yl]-1,3-dihydro-benzimidazol-2-one] | – | 34 | 380 | 51 | – | – | – | –
O=c1[nH]c2ccccc2n1C1CCN(C(=S)NCCN2CCOCC2)CC1 [Compound 26] | 0 | 10 | – | 20 | – | 33 | – | –
NCCCn1c(=O)n(C2CCN(C(=S)NC(c3ccccc3)c3ccccc3)CC2)c2cc(Cl)c(Cl)cc21 [Compound 67, 5,6-Dichloro-1-[(N1-piperidinocarbothioylbenzhydrylamino)-4-yl]-3-(3-aminopropyl)-1,3-dihydro-benzimidazol-2-one] | 45 | 2 | – | 0 | – | – | – | 57
CN1CCN(CCCn2c(=O)n(C3CCN(C(=O)NC(c4ccccc4)c4ccccc4)CC3)c3ccccc32)CC1 [Compound 100, 1-[(N1-piperidinocarbonylbiphenylmethylamino)-4-yl]-3-(3-N-(N-Methylpiperazino)propyl)-1,3-dihydrobenzimidazol-2-one] | – | 6 | 283 | 24 | 36 | – | – | –
CCc1ccc(CCNC(=S)N2CCC(n3c(=O)[nH]c4ccccc43)CC2)cc1 [Compound 21] | – | 13 | – | 19 | – | 31 | – | –
O=c1n(CCN2CCOCC2)c2ccccc2n1C1CCN(C(=S)NC(c2ccccc2)c2ccccc2)CC1 [Compound 19, 1-[(N1-Piperidinocarbothioyldiphenylmethylamino)-4-yl]-3-(2-N-morpholinoethyl)-1,3-dihydro-benzimidazol-2-one] | – | 69 | 270 | 42 | – | – | – | –

Second part, the compound after the results:

inhibition at 10 µM (human V1b receptor) [%] | inhibition at 10 µM (NPY2 receptors) [%] | IC50 (human V1a receptor) [nM] | inhibition at 1 µM (human V2 receptor) [%] | inhibition at 1 µM (human V1b receptor) [%] | inhibition at 1 µM (human V1a receptor) [%] | inhibition at 10 µM (human V1a receptor; 10 μM compound, read-out: V1a % Inh @10) [%] | inhibition at 0.1 µM (human V1a receptor) [%] | SMILES
11 | 17 | 190 | 0 | – | – | – | – | COC(=O)C(Cc1ccccc1)NC(=S)N1CCC(n2c(=O)[nH]c3ccccc32)CC1 (stereo not drawn) [Compound 40]
0 | 10 | – | 14 | – | 45 | – | – | NC(=O)C(Cc1ccccc1)NC(=S)N1CCC(n2c(=O)[nH]c3ccccc32)CC1 (stereo not drawn) [Compound 47]
26 | 16 | – | 0 | – | – | – | 8 | CC(C)(C)OC(=O)NCCNC(=O)C(Cc1ccccc1)NC(=S)N1CCC(n2c(=O)[nH]c3ccccc32)CC1 (stereo not drawn) [Compound 46]
– | 11 | – | 0 | – | 8 | – | – | O=C(O)C(Cc1ccccc1)NC(=S)N1CCC(n2c(=O)[nH]c3ccccc32)CC1 (stereo not drawn) [Compound 41]
13 | 11 | 580 | – | – | – | – | – | COC(=O)C(Cc1ccccc1)NC(=S)N1CCC(n2c(=O)n(CCCNC(=O)OCc3ccccc3)c3ccccc32)CC1 (stereo not drawn) [Compound 52]
– | 15 | – | 9 | – | 54 | – | – | CN1CCN(C(=O)C(Cc2ccccc2)NC(=S)N2CCC(n3c(=O)[nH]c4ccccc43)CC2)CC1 (stereo not drawn) [Compound 45]
